Results reported in patent publication EP2698385A1, “Detection of synthetic cannabinoids” (priority 2012, dated 2014).
Counter-ions that a name gives are not always drawn. Like-named read-outs stand apart in the source and are kept apart here.

Legend:
Format in all cases: binding, sheep
Antibody to Immunogen IV = tested on: Antibody to Immunogen IV
Experimental: (§1) An aqueous solution of each immunogen was formulated with Freund's Complete Adjuvant (FCA) to form an emulsion consisting of 2mg/ml* immunogen in 50% (v/v) FCA. Three sheep were immunised with this emulsion (1° immunisation), 0.25ml being intramuscularly injected at each of four sites in the flank of each animal. Subsequent immunizations (boosts) contained 1mg/ml* immunogen. All boosts were emulsified in 50% (v/v) Freund's Incomplete Adjuvant (FIA) and were administered in the same manner as the 1° immunisation, at monthly intervals. Blood sampling took place 7 to 14 days after each boost. *The general procedure for immunogen administration is outlined above, however, it was necessary to deviate from this protocol in some cases, due to reduced immunogen concentrations (Immunogens II, IV, VII and VIII) and/or amount available (Immunogen VIII). Any deviations from the protocol described are outlined in Table 1A below and highlighted in bold. Table 1A: Amount and volume of immunogens administered for primary and subsequent boosts
(§2) The wells of an enhanced binding 96 well polystyrene microtiter plate were coated with IgG fraction of antiserum raised to Immunogen I or II, diluted in 10mM Tris, pH8.5 (125µl/well). The appropriate antibody coating dilution was determined using standard ELISA checkerboard techniques. The plate was incubated overnight at 4°C, washed 4 times over 10 minutes with Tris buffered saline containing Tween 20 (TBST) and tapped dry. Standard solutions (JWH-018 for Immunogens I and II) were applied at 0, 0.625, 1.25, 2.5, 5, 10, 20 and 40ng/ml and 50µl of each was added to the appropriate wells. 75µl of conjugate (appropriate hapten-HRP) diluted in Tris buffer (pH 7.2) containing EDTA, D-mannitol, sucrose, thimerosal and BSA, was added to each of the wells. The appropriate dilution of conjugate was also determined using standard ELISA checkerboard techniques. The plate was incubated at 25°C for 1 hour. Excess unbound conjugate was removed by washing 6 times over a 10 minute period with TBST. 125µl of tetramethylbenzidine (TMB) substrate solution was added to each well of the plate that was then incubated for 20 minutes in the dark at room temperature. The reaction was terminated by addition of 125µl 0.2M H2SO4 to each well. The absorbance was then measured at 450nm using a microtiter plate reader. The data are inputted to a computer program called 'KC Junior'. It is a 4 parameter fit curve and allow the calculatation of concentrations between the standard runs. This program is used to calculate the IC50s by dividing the 0ng/ml OD value by 2 and obtaining the concentration value from the curve for this OD.
(§3) In a similar manner to that described above, the wells of a 96-well microtiter plate were coated with the IgG fraction of the antiserum raised to Immunogens IV, VII or VIII. Standard solutions (JWH-018 for Immunogens IV and VIII, JWH-015 for Immunogen VII) were prepared in TBST at 0, 1.25, 2.5, 5, 10, 20, 40 and 80ng/ml and conjugate was employed as detection reagent.
(§4) The data set our in Tables 3 and 4 are generated using antibodies raised against the indicated Immunogens in a competitive binding assay with the indicated tracers, using the indicated standards: Table 2
(§5) A450 = absorbance at 450nm B = absorbance at 450nm at xng/ml standard concentration B0 = absorbance at 450nm at 0ng/ml standard concentration IC50 = standard concentration which produces 50% B/B0
(§6) In order to determine the specificity of the competitive ELISAs, standard solutions of a range of structurally similar synthetic cannabinoids and their metabolites were prepared in TBST. Using the calibration curves generated and employing a single level of cross reactants, these were used to determine the cross-reactivity of each immunoassay with these substances. […]

[1] = tested on: Antibody to Immunogen VII
Experimental: as §1, §2, §3, §4, §5, §6

[2] = tested on: Antibody to Immunogen VIII
Experimental: as §1, §2, §3, §4, §5, §6

Antibody to Immunogen I = details: Cross-reactants at 100 ng/ml, Antibody to Immunogen I
Experimental: as §1, §2
In a similar manner to that described above, the wells of a 96-well microtiter plate were coated with the IgG fraction of the antiserum raised to Immunogens I or II. Standard solutions (JWH-018 for Immunogen I and II) were applied at 0, 0.625, 1.25, 2.5, 5, 10, 20 and 40ng/ml and conjugate was employed as detection reagent.
as §4, §5, §6

[3] = Cross-reactants at 100 ng/ml, Antibody to Immunogen IV
[4] = Cross-reactants at 100 ng/ml, Antibody to Immunogen VII
[5] = Cross-reactants at 100 ng/ml, Antibody to Immunogen VIII

Compound | %B/B0 (Antibody to Immunogen IV; [3]) [%] | %B/B0 [1, 4] [%] | %B/B0 [2, 5] [%] | %B/B0 (Antibody to Immunogen I) [%] | %B/B0 (Antibody to Immunogen IV; Cross-reactants at 100 ng/ml, Antibody to Immunogen IV, listed as YWH-081 7-methoxynaphthyl isomer (JWH-164)) [%] | %B/B0 ([1]; Cross-reactants at 100 ng/ml, Antibody to Immunogen VII, listed as YWH-081 7-methoxynaphthyl isomer (JWH-164)) [%] | %B/B0 ([2]; Cross-reactants at 100 ng/ml, Antibody to Immunogen VIII, listed as YWH-081 7-methoxynaphthyl isomer (JWH-164)) [%] | %B/B0 (Antibody to Immunogen I; listed as YWH-081 7-methoxynaphthyl isomer (JWH-164)) [%] | %B/B0 (Antibody to Immunogen IV) [%] | %B/B0 [1] [%] | %B/B0 [2] [%]
COc1ccc(C(=O)c2c(C)n(CCN3CCOCC3)c3cc(I)ccc23)cc1 [AM-630 (other name 6-Iodopravadoline), 6-Iodopravadoline] | 90.17 | 99.88 | 89.88 | 91.12 |  |  |  |  |  |  | 
O=C(c1ccc(I)cc1)c1cn(CCCCCF)c2ccccc12 [AM-694 4-iodo isomer] | 27.66 | 98.71 | 13.42 | 73.79 |  |  |  |  |  |  | 
CN1CCCCC1Cn1cc(C(=O)c2cc([N+](=O)[O-])ccc2I)c2ccccc21 (centres unmarked) [AM-1241] | 91.38 | 94.96 | 102.46 | 85.61 |  |  |  |  |  |  | 
CCCCCCC(C)(C)C1=CC(=O)C([C@@H]2CCC[C@H](O)C2)=CC1=O [CP-47,497-para-quinone analogue] | 97.33 | 93.29 | 88.11 | 100.26 |  |  |  |  |  |  | 
CCCCCCCC(C)(C)c1ccc([C@H]2CCC[C@@H](O)C2)c(O)c1 [CP-49,497-C8-homologue] | 94.66 | 98.55 | 104.88 | 101.11 |  |  |  |  |  |  | 
CCCCCCC(C)(C)c1cc(O)c2c(c1)OC(C)(C)[C@@H]1CC=C(CO)C[C@@H]21 [HU-210] | 92.53 | 100.39 | 93.42 | 102.57 |  |  |  |  |  |  | 
CCCCCCC(C)(C)c1cc(O)c2c(c1)OC(C)(C)[C@H]1CC=C(CO)C[C@H]21 [HU-211 (Dexanabinol), Dexanabinol] | 93.37 | 96.78 | 92.70 | 103.36 |  |  |  |  |  |  | 
CCCCCCC(C)(C)c1cc(OC)c([C@@H]2C=C(CO)[C@@H]3C[C@H]2C3(C)C)c(OC)c1 [HU-308] | 94.03 | 95.95 | 89.77 | 101.35 |  |  |  |  |  |  | 
CCCCCn1cc(C(=O)c2ccc3ccccc3c2)c2ccccc21 [JWH 018 2'-naphthyl isomer] | 28.13 | 94.98 | 14.94 | 75.90 |  |  |  |  |  |  | 
CCCCCn1cc(C(=O)C23CC4CC(CC(C4)C2)C3)c2ccccc21 [JWH 018 adamantyl analog] | 99.02 | 94.48 | 10.97 | 95.94 |  |  |  |  |  |  | 
CCCCCn1cc(C(=O)Cc2ccccc2OC)c2cc(O)ccc21 [JWH 250 5-hydroxyindole metabolite] | 84.05 | 99.88 | 67.19 | 100.75 |  |  |  |  |  |  | 
COc1ccccc1CC(=O)c1cn(CCCCCC(=O)O)c2ccccc12 [JWH 250 N-(5-carboxypentyl) metabolite] | 89.88 | 97.60 | 89.30 | 86.21 |  |  |  |  |  |  | 
COc1ccccc1CC(=O)c1cn(CCCCCO)c2ccccc12 [JWH 250 N-(5-hydroxypentyl) metabolite] | 76.22 | 96.13 | 42.79 | 75.47 |  |  |  |  |  |  | 
CCCCCn1cc(C(=O)Cc2cccc(C)c2)c2ccccc21 [JWH 251 3-methylphenyl isomer] | 51.15 | 99.32 | 8.97 | 85.90 |  |  |  |  |  |  | 
CCCCCC(C)n1c(C)c(C(=O)c2cccc3ccccc23)c2ccccc21 (centres unmarked) [JWH-011] | 99.19 | 57.43 | 97.49 | 62.13 |  |  |  |  |  |  | 
CCCCCn1c(O)c(C(=O)c2cccc3ccccc23)c2ccccc21 [JWH-018 2-hydroxyindole metabolite] | 100.14 | 95.08 | 101.36 | 95.37 |  |  |  |  |  |  | 
CCCCCn1ccc(C(=O)c2cccc3ccccc23)c1 [JWH-030] | 93.17 | 89.66 | 94.25 | 61.17 |  |  |  |  |  |  | 
CCCCn1c(O)c(C(=O)c2cccc3ccccc23)c2ccccc21 [JWH-073 2-hydroxyindole metabolite] | 89.63 | 92.65 | 93.42 | 89.62 |  |  |  |  |  |  | 
CCCCn1cc(C(=O)c2ccc(C)c3ccccc23)c2ccccc21 [JWH-073 4-methylnaphthyl analogue] | 7.01 | 78.36 | 19.75 | 45.54 |  |  |  |  |  |  | 
COc1ccc(C(=O)c2cn(CCCCCO)c3ccccc23)c2ccccc12 [JWH-081 N-(5-hydroxypentyl) metabolite] | 26.31 | 89.31 | 47.16 | 61.86 |  |  |  |  |  |  | 
CCCCCn1cc(C(=O)c2ccc(OC)c3ccccc23)c2ccccc21 [JWH-081] | 3.78 | 86.72 | 15.88 | 62.13 |  |  |  |  |  |  | 
CCCCCn1c(C)c(C(=O)c2ccc(OC)c3ccccc23)c2ccccc21 [JWH-098] | 44.03 | 82.85 | 59.80 | 77.58 |  |  |  |  |  |  | 
CCCC(C)(C)c1ccc2c(c1)OC(C)(C)[C@@H]1CC=C(C)C[C@@H]21 [JWH-133] | 98.18 | 101.84 | 100.00 | 100.56 |  |  |  |  |  |  | 
CCCCCCn1cc(C(=O)c2cccc3ccccc23)cc1-c1ccccc1 [JWH-147] | 97.00 | 99.32 | 92.32 | 83.85 |  |  |  |  |  |  | 
CCCCCn1cc(C(=O)c2cccc3ccc(OC)cc23)c2ccccc21 [JWH-164 (JWH-081 7-methoxynaphthyl isomer), JWH-081 7-methoxynaphthyl isomer] | 36.14 | 96.13 | 57.93 | 91.86 | 39.20 | 97.60 | 59.51 | 88.26 |  |  | 
CCCCCn1cc(C(=O)c2ccc(CCC)c3ccccc23)c2ccccc21 [JWH-182] | 12.83 | 98.40 | 30.65 | 107.08 |  |  |  |  |  |  | 
O=C(c1ccc2ccccc2c1)c1cn(CCN2CCOCC2)c2ccccc12 [JWH-200 2'-naphthyl isomer] | 92.29 | 94.65 | 96.12 | 28.57 |  |  |  |  |  |  | 
CCCCCn1cc(C(=O)Cc2ccc(OC)cc2)c2ccccc21 [JWH-201] | 59.03 | 100.25 | 8.26 | 77.14 |  |  |  |  |  |  | 
NCCc1c[nH]c2ccc(O)cc12 [Serotonin HCl] | 95.40 | 99.83 | 100.36 |  |  |  |  |  |  |  | 
(-)-11-nor-9-Carboxy-delta9-THC |  |  |  |  |  |  |  |  | 93.08 | 98.72 | 103.36
